ChEMBL document CHEMBL4673362, “Design, synthesis, and biological evaluation of 2,6,7-substituted pyrrolo[2,3-d]pyrimidines as cyclin dependent kinase inhibitor in pancreatic cancer cells” (Bioorg Med Chem Lett, 2021)
Converted amounts (≈) assume the structure as drawn. The source made the active and inactive calls. The rule behind the calls is not given here.

How the values were obtained:
BXPC-3 = assay: Antiproliferative activity against human BxPC-3 cells assessed as inhibition of cell growth by MTT assay; assay type: functional, cell-based
MIA PaCa-2 [1] = assay: Antiproliferative activity against human MIA PaCa-2 cells assessed as inhibition of cell growth by MTT assay; assay type: functional, cell-based
CDK6/cyclin D1 = CDK6/cyclin D1 (Homo sapiens, UniProt Q00534); assay: Inhibition of CDK6/cyclin D1 (unknown origin); assay type: protein-complex assay
Chain of CDK6/cyclin D1 (P24385 whole entry): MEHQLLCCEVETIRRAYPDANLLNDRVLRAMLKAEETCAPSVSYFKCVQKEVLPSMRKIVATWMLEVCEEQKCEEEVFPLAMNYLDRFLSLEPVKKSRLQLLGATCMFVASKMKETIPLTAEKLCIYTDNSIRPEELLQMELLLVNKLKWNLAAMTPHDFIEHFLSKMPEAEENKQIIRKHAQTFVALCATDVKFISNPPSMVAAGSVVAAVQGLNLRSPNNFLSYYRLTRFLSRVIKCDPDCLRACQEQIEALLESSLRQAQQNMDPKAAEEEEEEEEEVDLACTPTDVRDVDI
Chain of CDK6/cyclin D1 (Q00534 whole entry): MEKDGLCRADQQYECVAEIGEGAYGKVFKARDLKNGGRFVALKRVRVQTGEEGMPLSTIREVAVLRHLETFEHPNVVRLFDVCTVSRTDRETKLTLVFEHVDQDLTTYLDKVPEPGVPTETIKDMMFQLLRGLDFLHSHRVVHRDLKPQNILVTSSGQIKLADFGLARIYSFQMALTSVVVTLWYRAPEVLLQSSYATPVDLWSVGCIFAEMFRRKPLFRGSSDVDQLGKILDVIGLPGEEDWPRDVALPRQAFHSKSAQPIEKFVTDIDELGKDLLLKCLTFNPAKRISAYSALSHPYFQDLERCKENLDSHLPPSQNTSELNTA

[2] = biological target: Cyclin-dependent kinase 4/cyclin D1 (Homo sapiens, UniProt P11802); assay: Inhibition of CDK4/cyclin D1 (unknown origin); assay type: protein-complex assay
Chain of Cyclin-dependent kinase 4/cyclin D1 (P11802 whole entry): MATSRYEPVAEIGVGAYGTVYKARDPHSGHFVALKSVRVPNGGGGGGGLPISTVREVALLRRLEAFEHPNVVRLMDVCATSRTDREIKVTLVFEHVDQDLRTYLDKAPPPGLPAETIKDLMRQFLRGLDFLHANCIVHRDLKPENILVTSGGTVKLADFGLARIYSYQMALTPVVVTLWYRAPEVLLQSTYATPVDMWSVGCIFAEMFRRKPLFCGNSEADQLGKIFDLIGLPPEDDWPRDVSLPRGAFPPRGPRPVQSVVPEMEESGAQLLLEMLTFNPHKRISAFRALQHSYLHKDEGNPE
Chain of Cyclin-dependent kinase 4/cyclin D1 (P24385 whole entry, further chain): as the sequence (P24385 whole entry) above

MIA PaCa-2 [3] = assay: Cell cycle arrest in human MIA PaCa-2 cells assessed as accumulation at G1 phase at 2.5 uM (reference value: 44.09 %); assay type: functional
MIA PaCa-2 [4] = assay: Cell cycle arrest in human MIA PaCa-2 cells assessed as accumulation at S phase at 0.8 uM (reference value: 45.27 %); assay type: functional
[5] = Metabolic stability in rat liver microsomes assessed as half life; assay type: ADME, Microsome
MIA PaCa-2 [6] = assay: Cell cycle arrest in human MIA PaCa-2 cells assessed as accumulation at G2 phase at 1.6 uM (reference value: 10.64 %); assay type: functional
[7] = Metabolic stability in human liver microsomes assessed as half life; assay type: ADME, Microsome
MIA PaCa-2 [8] = assay: Cell cycle arrest in human MIA PaCa-2 cells assessed as accumulation at S phase at 2.5 uM (reference value: 45.27 %); assay type: functional
MIA PaCa-2 [9] = assay: Cell cycle arrest in human MIA PaCa-2 cells assessed as accumulation at G2 phase at 0.8 uM (reference value: 10.64 %); assay type: functional
[10] = biological target: Cyclin-dependent kinase 9 (Homo sapiens) (UniProt P50750); assay: Inhibition of CDK9 (unknown origin) at 1 uM relative to control
Chain of Cyclin-dependent kinase 9 (Homo sapiens) (P50750 whole entry): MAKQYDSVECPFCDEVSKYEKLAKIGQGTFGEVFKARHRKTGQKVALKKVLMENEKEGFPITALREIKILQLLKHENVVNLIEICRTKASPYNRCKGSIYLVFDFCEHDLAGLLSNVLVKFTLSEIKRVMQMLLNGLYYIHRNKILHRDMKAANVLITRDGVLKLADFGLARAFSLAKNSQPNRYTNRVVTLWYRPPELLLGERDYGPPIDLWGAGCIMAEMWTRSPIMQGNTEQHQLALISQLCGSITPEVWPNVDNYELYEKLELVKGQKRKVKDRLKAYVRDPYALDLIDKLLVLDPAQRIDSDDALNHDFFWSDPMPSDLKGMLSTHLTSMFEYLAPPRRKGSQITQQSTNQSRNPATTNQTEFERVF

MIA PaCa-2 [11] = assay: Cell cycle arrest in human MIA PaCa-2 cells assessed as accumulation at S phase at 1.6 uM (reference value: 45.27 %); assay type: functional
MIA PaCa-2 [12] = assay: Cell cycle arrest in human MIA PaCa-2 cells assessed as accumulation at G2 phase at 2.5 uM (reference value: 10.64 %); assay type: functional
MIA PaCa-2 [13] = assay: Cell cycle arrest in human MIA PaCa-2 cells assessed as accumulation at G1 phase at 1.6 uM (reference value: 44.09 %); assay type: functional
[14] = Permeability of the compound at pH 7.4 by PAMPA; assay type: ADME; conditions: read-out: permeability
[15] = Solubility of the compound at pH 7.4; assay type: physicochemical; conditions: buffer
[16] = Permeability of the compound at pH 5.0 by PAMPA; assay type: ADME; conditions: read-out: permeability
MIA PaCa-2 [17] = assay: Cell cycle arrest in human MIA PaCa-2 cells assessed as accumulation at G1 phase at 0.8 uM (reference value: 44.09 %); assay type: functional
[18] = biological target: Cyclin-dependent kinase 6 (Homo sapiens) (UniProt Q00534); assay: Inhibition of CDK6 (unknown origin) at 1 uM
Chain of Cyclin-dependent kinase 6 (Homo sapiens) (Q00534 whole entry): as the sequence (Q00534 whole entry) above

[19] = biological target: Cyclin-dependent kinase 4 (Homo sapiens) (UniProt P11802); assay: Inhibition of CDK4 (unknown origin) at 1 uM
Chain of Cyclin-dependent kinase 4 (Homo sapiens) (P11802 whole entry): as the sequence (P11802 whole entry) above

[20] = biological target: Cyclin-dependent kinase 5 (Homo sapiens) (UniProt Q00535); assay: Inhibition of CDK5 (unknown origin) at 1 uM
Chain of Cyclin-dependent kinase 5 (Homo sapiens) (Q00535 whole entry, looked up): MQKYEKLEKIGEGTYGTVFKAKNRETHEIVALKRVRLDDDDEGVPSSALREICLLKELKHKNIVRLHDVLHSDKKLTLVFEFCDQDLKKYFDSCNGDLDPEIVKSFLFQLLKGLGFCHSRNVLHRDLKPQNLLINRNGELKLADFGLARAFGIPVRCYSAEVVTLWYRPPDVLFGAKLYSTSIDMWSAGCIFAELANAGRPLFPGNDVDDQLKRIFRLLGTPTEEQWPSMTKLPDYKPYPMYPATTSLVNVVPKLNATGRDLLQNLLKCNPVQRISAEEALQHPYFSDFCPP

[21] = biological target: Cyclin-dependent kinase 2 (Homo sapiens) (UniProt P24941); assay: Inhibition of CDK2 (unknown origin) at 1 uM
[22] = biological target: CDK6/cyclin D1 (Homo sapiens) (UniProt P24385+Q00534); assay: Inhibition of human CDK6/cyclin D1 at 1 uM relative to control; assay type: protein-complex assay
[23] = biological target: Dual specificity protein kinase TTK (Homo sapiens) (UniProt P33981); assay: Inhibition of human TTK at 1 uM relative to control
Chain of Dual specificity protein kinase TTK (Homo sapiens) (P33981 whole entry): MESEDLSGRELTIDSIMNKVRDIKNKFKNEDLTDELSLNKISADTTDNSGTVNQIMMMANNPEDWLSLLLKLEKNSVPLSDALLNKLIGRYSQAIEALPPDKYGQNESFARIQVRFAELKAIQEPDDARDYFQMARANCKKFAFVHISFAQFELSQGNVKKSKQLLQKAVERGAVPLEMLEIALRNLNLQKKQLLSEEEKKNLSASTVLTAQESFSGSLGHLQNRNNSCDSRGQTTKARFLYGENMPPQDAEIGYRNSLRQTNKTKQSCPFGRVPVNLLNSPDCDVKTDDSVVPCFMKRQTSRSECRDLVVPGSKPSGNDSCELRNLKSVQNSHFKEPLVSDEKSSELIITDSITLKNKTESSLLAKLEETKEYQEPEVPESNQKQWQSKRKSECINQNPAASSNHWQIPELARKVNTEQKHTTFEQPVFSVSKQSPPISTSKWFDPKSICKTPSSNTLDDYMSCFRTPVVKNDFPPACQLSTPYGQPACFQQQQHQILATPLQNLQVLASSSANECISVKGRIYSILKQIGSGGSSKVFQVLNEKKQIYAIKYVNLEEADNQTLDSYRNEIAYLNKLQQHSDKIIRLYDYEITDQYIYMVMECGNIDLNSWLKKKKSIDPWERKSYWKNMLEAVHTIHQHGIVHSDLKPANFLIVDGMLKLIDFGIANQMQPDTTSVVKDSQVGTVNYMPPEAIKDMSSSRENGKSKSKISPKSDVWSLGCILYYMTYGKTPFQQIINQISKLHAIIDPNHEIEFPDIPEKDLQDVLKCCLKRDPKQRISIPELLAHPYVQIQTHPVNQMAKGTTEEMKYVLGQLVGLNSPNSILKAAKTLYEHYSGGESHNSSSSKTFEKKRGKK

[24] = biological target: Mitogen-activated protein kinase kinase kinase 9 (Homo sapiens) (UniProt P80192); assay: Inhibition of human MLK1 at 1 uM relative to control
[25] = biological target: Calcium/calmodulin-dependent protein kinase type 1 (Homo sapiens) (UniProt Q14012); assay: Inhibition of human CAMK1 at 1 uM relative to control
Chain of Calcium/calmodulin-dependent protein kinase type 1 (Homo sapiens) (Q14012 whole entry, looked up): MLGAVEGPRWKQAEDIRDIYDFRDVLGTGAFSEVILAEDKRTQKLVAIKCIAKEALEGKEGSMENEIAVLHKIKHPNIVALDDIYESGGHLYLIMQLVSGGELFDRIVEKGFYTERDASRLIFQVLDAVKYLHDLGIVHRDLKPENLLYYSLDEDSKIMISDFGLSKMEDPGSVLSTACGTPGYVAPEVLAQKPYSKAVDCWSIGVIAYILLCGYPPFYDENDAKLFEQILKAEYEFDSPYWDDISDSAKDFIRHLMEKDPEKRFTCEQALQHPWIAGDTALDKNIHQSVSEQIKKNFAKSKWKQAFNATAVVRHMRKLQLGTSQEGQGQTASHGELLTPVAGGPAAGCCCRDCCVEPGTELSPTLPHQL

[26] = biological target: Cyclin-dependent kinase 3 (Homo sapiens) (UniProt Q00526); assay: Inhibition of CDK3 (unknown origin) at 1 uM
[27] = biological target: Cyclin-dependent kinase 9 (Homo sapiens) (UniProt P50750); assay: Inhibition of CDK9 (unknown origin) at 1 uM
[28] = biological target: Cyclin-dependent kinase 4/cyclin D1 (Homo sapiens) (UniProt P11802+P24385); assay: Inhibition of human CDK4/cyclin D1 at 1 uM relative to control; assay type: protein-complex assay
[29] = biological target: Cyclin-dependent kinase 1 (Homo sapiens) (UniProt P06493); assay: Inhibition of CDK1 (unknown origin) at 1 uM
[30] = biological target: CDK4/Cyclin D3 (Homo sapiens) (UniProt P11802+P30281); assay: Inhibition of human CDK4/cyclin D3 at 1 uM relative to control; assay type: protein-complex assay
[31] = biological target: Tyrosine-protein kinase Fer (Homo sapiens) (UniProt P16591); assay: Inhibition of human FER at 1 uM relative to control
[32] = biological target: Cyclin-dependent kinase 7 (Homo sapiens) (UniProt P50613); assay: Inhibition of CDK7 (unknown origin) at 1 uM
[33] = biological target: Calcium/calmodulin-dependent protein kinase kinase 1 (Homo sapiens) (UniProt Q8N5S9); assay: Inhibition of human CAMKKA at 1 uM relative to control
Chain of Calcium/calmodulin-dependent protein kinase kinase 1 (Homo sapiens) (Q8N5S9 whole entry, looked up): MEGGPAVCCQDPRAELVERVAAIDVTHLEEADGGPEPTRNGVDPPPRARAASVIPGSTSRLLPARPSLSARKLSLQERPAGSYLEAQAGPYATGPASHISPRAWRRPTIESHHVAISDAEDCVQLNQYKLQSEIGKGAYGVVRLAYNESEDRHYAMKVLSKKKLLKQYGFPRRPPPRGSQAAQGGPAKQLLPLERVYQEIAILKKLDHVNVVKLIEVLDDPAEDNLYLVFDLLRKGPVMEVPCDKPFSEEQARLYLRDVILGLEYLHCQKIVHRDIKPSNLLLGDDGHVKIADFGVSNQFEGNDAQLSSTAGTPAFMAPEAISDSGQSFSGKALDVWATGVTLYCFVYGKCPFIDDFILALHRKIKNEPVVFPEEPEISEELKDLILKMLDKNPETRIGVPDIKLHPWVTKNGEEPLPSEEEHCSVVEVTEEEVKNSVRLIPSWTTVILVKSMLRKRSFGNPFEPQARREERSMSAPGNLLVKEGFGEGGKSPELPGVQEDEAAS

[34] = biological target: Cyclin-dependent kinase 8 (Homo sapiens) (UniProt P49336); assay: Inhibition of CDK8 (unknown origin) at 1 uM
Chain of Cyclin-dependent kinase 8 (Homo sapiens) (P49336 whole entry): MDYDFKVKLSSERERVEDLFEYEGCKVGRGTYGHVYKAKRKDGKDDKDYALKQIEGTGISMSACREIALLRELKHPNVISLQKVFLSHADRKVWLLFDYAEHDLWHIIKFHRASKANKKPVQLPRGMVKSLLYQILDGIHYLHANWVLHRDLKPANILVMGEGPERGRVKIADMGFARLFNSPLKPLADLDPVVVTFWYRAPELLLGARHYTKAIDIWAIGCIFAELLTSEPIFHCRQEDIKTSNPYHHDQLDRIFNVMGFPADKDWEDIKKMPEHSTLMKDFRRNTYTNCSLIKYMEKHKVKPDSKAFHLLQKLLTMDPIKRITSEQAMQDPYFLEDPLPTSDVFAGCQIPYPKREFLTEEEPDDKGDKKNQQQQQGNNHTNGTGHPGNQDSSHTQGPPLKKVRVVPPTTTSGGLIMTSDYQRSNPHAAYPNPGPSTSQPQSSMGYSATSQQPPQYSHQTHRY

SMILES | IC50 (BXPC-3) | IC50 (MIA PaCa-2 [1]) | IC50 (CDK6/cyclin D1) | IC50 [2] | further results
COc1ccc(NC(=O)c2cc3cnc(Nc4ccc(N5CCNCC5)cn4)nc3n2C2CCCC2)c(OC)c1 | 3650 nM | 2230 nM | 268 nM | 28.1 nM | –
CN(C)C(=O)c1cc2cnc(Nc3cccnc3)nc2n1C1CCCC1 | – | 26000 nM | – | 315 nM | –
CC(=O)c1c(C)c2cnc(Nc3ccc(N4CCNCC4)cn3)nc2n(C2CCCC2)c1=O [PALBOCICLIB] | – | 10600 nM | – | – | –
CN(C)C(=O)c1cc2cnc(Nc3ccc(Cl)cc3)nc2n1C1CCCC1 | – | 13000 nM | – | 143 nM | –
Cc1cc(C)nc(NS(=O)(=O)c2ccc(Nc3ncc4cc(C(=O)N(C)C)n(C5CCCC5)c4n3)cc2)n1 | – | 8250 nM | – | 150 nM | Activity (MIA PaCa-2 [3]): 35.53%; Activity (MIA PaCa-2 [4]): 36.86%; half-life [5]: > 30 min; Activity (MIA PaCa-2 [6]): 17.5%; half-life [7]: 25.1 min; Activity (MIA PaCa-2 [8]): 37.29%; Activity (MIA PaCa-2 [9]): 18.44%; inhibition [10]: 99%; Activity (MIA PaCa-2 [11]): 39.11%; Activity (MIA PaCa-2 [12]): 27.08%; Activity (MIA PaCa-2 [13]): 43.39%; Papp [14]: 376 ×10⁻⁶ cm/s; solubility [15]: 7.5 µg/mL (≈ 14 µM); Papp [16]: 443 ×10⁻⁶ cm/s; Activity (MIA PaCa-2 [17]): 44.7%
CCN1CCN(Cc2ccc(Nc3ncc(F)c(-c4cc(F)c5nc(C)n(C(C)C)c5c4)n3)nc2)CC1 [ABEMACICLIB] | – | 5800 nM | – | – | –
O=C(c1cc2cnc(Nc3ccc(N4CCNCC4)cn3)nc2n1C1CCCC1)N1CCCCC1 | – | 39600 nM | – | 861 nM | –
O=C(Nc1ccccc1)c1cc2cnc(N3CCN(c4ccc(Cl)cc4)CC3)nc2n1C1CCCC1 | – | > 200000 nM | – | > 100000 nM | –
CN(C)C(=O)c1cc2cnc(Nc3ccc(N4CCNCC4)cn3)nc2n1C1CCCC1 [RIBOCICLIB] | 68400 nM | 10700 nM | – | – | Activity (MIA PaCa-2 [3]): 77.2%; Activity (MIA PaCa-2 [4]): 27.53%; half-life [5]: > 30 min; Activity (MIA PaCa-2 [6]): 5.47%; half-life [7]: 146 min; Activity (MIA PaCa-2 [8]): 18.72%; Activity (MIA PaCa-2 [9]): 5.5%; Activity (MIA PaCa-2 [11]): 22.12%; Activity (MIA PaCa-2 [12]): 4.09%; Activity (MIA PaCa-2 [13]): 72.41%; Papp [14]: 123 ×10⁻⁶ cm/s; solubility [15]: > 64 µg/mL; Papp [16]: < 1 ×10⁻⁶ cm/s; Activity (MIA PaCa-2 [17]): 66.97%
O=C(Nc1ccccc1C(F)(F)F)c1cc2cnc(Nc3ccc(N4CCNCC4)cn3)nc2n1C1CCCC1 | 8040 nM | 3160 nM | 666 nM | 60.3 nM | inhibition [18]: Active; inhibition [19]: Active
O=C(Nc1ccccc1)c1cc2cnc(Nc3ccccc3)nc2n1C1CCCC1 | – | 14000 nM | – | 1190 nM | –
O=C(Nc1ccccc1)c1cc2cnc(Nc3ccc(N4CCNCC4)cn3)nc2n1C1CCCC1 | 5120 nM | 2800 nM | 63.8 nM | 28.7 nM | inhibition [18]: Active; inhibition [19]: Active
CN(C)C(=O)c1cc2cnc(Nc3ccccc3)nc2n1C1CCCC1 | – | 54900 nM | – | 92.9 nM | –
O=C(Nc1ccccc1Cl)c1cc2cnc(Nc3ccc(N4CCNCC4)cn3)nc2n1C1CCCC1 | 4350 nM | 2170 nM | 52.8 nM | 23 nM | inhibition [18]: Active; inhibition [19]: Active
CN(C)C(=O)c1cc2cnc(Nc3ccc(N4CCNCC4)cn3)nc2n1Cc1ccccc1 | – | 30400 nM | – | > 100000 nM | –
O=C(Nc1ccccc1)c1cc2cnc(Nc3ccc(N4CCNCC4)cn3)nc2n1Cc1ccccc1 | – | 3600 nM | – | > 100000 nM | inhibition [20]: inactive; inhibition [21]: inactive; inhibition [22]: inactive; inhibition [23]: inactive; inhibition [24]: inactive; inhibition [25]: inactive; inhibition [26]: inactive; inhibition [27]: inactive; inhibition [28]: inactive; inhibition [29]: inactive; inhibition [30]: inactive; inhibition [31]: inactive; inhibition [32]: inactive; inhibition [18]: inactive; inhibition [19]: inactive; inhibition [33]: inactive; inhibition [34]: inactive
Cc1ccccc1NC(=O)c1cc2cnc(Nc3ccc(N4CCNCC4)cn3)nc2n1C1CCCC1 | 3340 nM | 2500 nM | 64 nM | 28.2 nM | inhibition [18]: Active; inhibition [19]: Active
COc1cccc(NC(=O)c2cc3cnc(Nc4ccc(N5CCNCC5)cn4)nc3n2C2CCCC2)c1 | 10500 nM | 2650 nM | 169 nM | 53.4 nM | –
COc1ccc(NC(=O)c2cc3cnc(Nc4ccc(N5CCNCC5)cn4)nc3n2C2CCCC2)cc1 | 8970 nM | 2880 nM | 391 nM | 121 nM | –
CCC(CO)Nc1ncc2cc(C(=O)N(C)C)n(C3CCCC3)c2n1 (stereo unspecified) | – | 31000 nM | – | 523 nM | –
O=C(Nc1ccc[n+]([O-])c1)c1cc2cnc(Nc3ccc(N4CCNCC4)cn3)nc2n1C1CCCC1 | – | 124000 nM | – | 3050 nM | –
CN(C)C(=O)c1cc2cnc(NC3CCCCC3)nc2n1C1CCCC1 | – | 25000 nM | – | 379 nM | –
O=C(Nc1ccccc1F)c1cc2cnc(Nc3ccc(N4CCNCC4)cn3)nc2n1C1CCCC1 | 8370 nM | 3670 nM | 369 nM | 45.3 nM | inhibition [18]: Active; inhibition [19]: Active
